Results reported in ChEMBL document CHEMBL1909294, “Translating clinical findings into knowledge in drug safety evaluation--drug induced liver injury prediction system (DILIps)” (PLoS Comput Biol, 2011).

Key:
Hepatotoxicity [1] = system: Hepatotoxicity;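 on HepSE Combined Scores: combined hepatic side effect score as listed in the training data of the Drug Induced Liver Injury Prediction System (DILIps)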;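 on HepSE bilirubinemia: bilirubinemia hepatic side effect score drawn from the DILIps training data, a prediction system for drug-induced liver injury; call rule not given here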;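 on HepSE cholecystitis: Cholecystitis-related hepatic side effect score drawn from the DILIps (drug-induced liver injury prediction) training data set; call rule not given here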;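 on HepSE cholelithiasis: hepatic side effect score for cholelithiasis, drawn from the DILIps training data for predicting drug-induced liver injury; call rule not given here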;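 on HepSE elevated liver function tests: hepatic side effect score for raised liver function tests, as recorded in the DILIps training set used for predicting drug-induced liver injury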; on HepSE hepatic failure: call rule not given here;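 on HepSE jaundice: Jaundice-related hepatic side-effect score drawn from the training data of the DILIps (drug-induced liver injury prediction system); call rule not given here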
Hepatotoxicity [2] = system: Hepatotoxicity; remark: listed apart in the source;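 on HepSE bilirubinemia: bilirubinemia hepatic side effect score drawn from the DILIps training data, a prediction system for drug-induced liver injury; call rule not given here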;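 on HepSE cholecystitis: Cholecystitis-related hepatic side effect score drawn from the DILIps (drug-induced liver injury prediction) training data set; call rule not given here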;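 on HepSE cholelithiasis: hepatic side effect score for cholelithiasis, drawn from the DILIps training data for predicting drug-induced liver injury; call rule not given here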;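 on HepSE elevated liver function tests: hepatic side effect score for raised liver function tests, as recorded in the DILIps training set used for predicting drug-induced liver injury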; on HepSE hepatic failure: call rule not given here;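 on HepSE jaundice: Jaundice-related hepatic side-effect score drawn from the training data of the DILIps (drug-induced liver injury prediction system); call rule not given here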
Hepatotoxicity [3] = system: Hepatotoxicity; remark: listed apart in the source;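 on HepSE bilirubinemia: bilirubinemia hepatic side effect score drawn from the DILIps training data, a prediction system for drug-induced liver injury; call rule not given here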;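 on HepSE cholecystitis: Cholecystitis-related hepatic side effect score drawn from the DILIps (drug-induced liver injury prediction) training data set; call rule not given here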;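 on HepSE cholelithiasis: hepatic side effect score for cholelithiasis, drawn from the DILIps training data for predicting drug-induced liver injury; call rule not given here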;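 on HepSE elevated liver function tests: hepatic side effect score for raised liver function tests, as recorded in the DILIps training set used for predicting drug-induced liver injury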; on HepSE hepatic failure: call rule not given here;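 on HepSE jaundice: Jaundice-related hepatic side-effect score drawn from the training data of the DILIps (drug-induced liver injury prediction system); call rule not given here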
Hepatotoxicity [4] = system: Hepatotoxicity; remark: listed apart in the source;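 on HepSE bilirubinemia: bilirubinemia hepatic side effect score drawn from the DILIps training data, a prediction system for drug-induced liver injury; call rule not given here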;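 on HepSE cholecystitis: Cholecystitis-related hepatic side effect score drawn from the DILIps (drug-induced liver injury prediction) training data set; call rule not given here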;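 on HepSE cholelithiasis: hepatic side effect score for cholelithiasis, drawn from the DILIps training data for predicting drug-induced liver injury; call rule not given here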;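 on HepSE elevated liver function tests: hepatic side effect score for raised liver function tests, as recorded in the DILIps training set used for predicting drug-induced liver injury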; on HepSE hepatic failure: call rule not given here;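 on HepSE jaundice: Jaundice-related hepatic side-effect score drawn from the training data of the DILIps (drug-induced liver injury prediction system); call rule not given here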
Hepatotoxicity [5] = system: Hepatotoxicity; remark: listed apart in the source; on HepSE hepatic failure: call rule not given here
Hepatotoxicity [6] = system: Hepatotoxicity; remark: listed apart in the source; on HepSE hepatic failure: call rule not given here
Hepatotoxicity [7] = system: Hepatotoxicity; remark: listed apart in the source
Hepatotoxicity [8] = system: Hepatotoxicity; remark: listed apart in the source
Hepatotoxicity [9] = system: Hepatotoxicity; remark: listed apart in the source
Hepatotoxicity [10] = system: Hepatotoxicity; remark: listed apart in the source
Hepatotoxicity [11] = system: Hepatotoxicity; remark: listed apart in the source
Hepatotoxicity [12] = system: Hepatotoxicity; remark: listed apart in the source
Hepatotoxicity [13] = system: Hepatotoxicity; remark: listed apart in the source
Hepatotoxicity [14] = system: Hepatotoxicity; remark: listed apart in the source

| Compound | HepSE_hepatic failure (Hepatotoxicity [1]) | HepSE_cholecystitis (Hepatotoxicity [2]) | HepSE_elevated liver function tests (Hepatotoxicity [3]) | HepSE_cholelithiasis (Hepatotoxicity [4]) | HepSE_bilirubinemia (Hepatotoxicity [5]) | HepSE_liver fatty (Hepatotoxicity [6]) | HepSE_jaundice (Hepatotoxicity [7]) | HepSE_Combined Scores (Hepatotoxicity [8]) | HepSE_hepatitis (Hepatotoxicity [9]) | HepSE_hepatic necrosis (Hepatotoxicity [10]) | HepSE_liver disease (Hepatotoxicity [11]) | HepSE_cirrhosis (Hepatotoxicity [12]) | HepSE_liver function tests abnormal (Hepatotoxicity [13]) | HepSE_hepatomegaly (Hepatotoxicity [14]) | further results |
| --- | --- | --- | --- | --- | --- | --- | --- | --- | --- | --- | --- | --- | --- | --- | --- |
| O=c1[nH]c2ccccc2n1C1CCN(CCCC(c2ccc(F)cc2)c2ccc(F)cc2)CC1 [PIMOZIDE] | 0 | 0 | 0 | 0 | 0 | 0 | 0 | 0 | 0 | 0 | 0 | 0 | 0 | 0 |  |
| CCCCC[C@H](O)/C=C/[C@@H]1[C@H]2C/C(=C/CCCC(=O)O)O[C@H]2C[C@H]1O [EPOPROSTENOL] | 1 | 0 | 0 | 0 | 0 | 0 | 0 | 1 | 0 | 0 | 0 | 0 | 0 | 0 |  |
| Cc1ccnc2c1NC(=O)c1cccnc1N2C1CC1 [NEVIRAPINE] | 1 | 0 | 0 | 0 | 0 | 0 | 1 | 6 | 1 | 1 | 1 | 0 | 1 | 0 |  |
| CCn1cc(C(=O)O)c(=O)c2ccc(C)nc21 [NALIDIXIC ACID] | 0 | 0 | 0 | 0 | 0 | 0 | 0 | 0 | 0 | 0 | 0 | 0 | 0 | 0 |  |
| NCCCNCCSP(=O)(O)O [AMIFOSTINE] |  |  |  |  |  |  |  |  |  |  |  |  |  |  | HepSE_hepatic failure (Hepatotoxicity [1]; Liver): 0; HepSE_cholecystitis (Hepatotoxicity [2]; Liver): 0; HepSE_elevated liver function tests (Hepatotoxicity [3]; Liver): 0; HepSE_cholelithiasis (Hepatotoxicity [4]; Liver): 0; HepSE_bilirubinemia (Hepatotoxicity [5]; Liver): 0; HepSE_liver fatty (Hepatotoxicity [6]; Liver): 0; HepSE_jaundice (Hepatotoxicity [7]; Liver): 0; HepSE_Combined Scores (Hepatotoxicity [8]; Liver): 0; HepSE_hepatitis (Hepatotoxicity [9]; Liver): 0; HepSE_hepatic necrosis (Hepatotoxicity [10]; Liver): 0; HepSE_liver disease (Hepatotoxicity [11]; Liver): 0; HepSE_cirrhosis (Hepatotoxicity [12]; Liver): 0; HepSE_liver function tests abnormal (Hepatotoxicity [13]; Liver): 0; HepSE_hepatomegaly (Hepatotoxicity [14]; Liver): 0 |
| Cc1ncc([N+](=O)[O-])n1CCO [METRONIDAZOLE] | 0 | 0 | 0 | 0 | 0 | 0 | 0 | 1 | 1 | 0 | 0 | 0 | 0 | 0 |  |
| CCCCC(=O)OCC(=O)[C@]1(O)Cc2c(O)c3c(c(O)c2[C@@H](O[C@H]2C[C@H](NC(=O)C(F)(F)F)[C@H](O)[C@H](C)O2)C1)C(=O)c1c(OC)cccc1C3=O [VALRUBICIN] | 0 | 0 | 0 | 0 | 0 | 0 | 0 | 0 | 0 | 0 | 0 | 0 | 0 | 0 |  |
